Measured values published in publication PMC11320734 (ACS Pharmacology & Translational Science, 2024).
Converted amounts (≈) assume the structure as drawn. Like-named read-outs stand apart in the source and are kept apart here.

What was measured:
[1] = tested on: UUO-induced kidney fibrosis; experiment: Unilateral ureteral obstruction (UUO) model of kidney fibrosis; format: in vivo, Sprague–Dawley rats; settings: 32 mg kg^–1, day 5, time-course experiment
Protocol: (§1) In the ischemia/reperfusion (I/R) model of acute kidney injury (AKI),[47],[48] the compounds were administered orally by gavage to C57BL/6 mice 30 min before ischemia obtained by clamping both renal arteries and veins for 25 min, followed by 24 h of reperfusion. Mice were anesthetized using xylazine (10 mg kg^–1)/ketamine (100 mg kg^–1) injected intraperitoneally. Sham treated mice were treated identically except for the temporary closure of the renal vessels. After 24 h, under reanesthesia, plasma was taken for biomarker analysis. Thereafter, mice still in deep anesthesia were sacrificed by cervical dislocation. Creatinine, BUN (blood urea nitrogen), NGAL (neutrophil gelatinase-associated lipocalin), osteopontin, and KIM1 (kidney injury molecule-1) levels were determined using the following commercially available standard assays: creatinine: Roche Diagnostics 03263991, BUN: Roche Diagnostics 04460715, NGAL: BioPorto, Kit046 + Kit042, osteopontin: R&D Systems, MOST00, KIM-1: Abnova, KA1064. To assess fibrotic effects, we used the unilateral ureteral obstruction (UOO) model in Sprague–Dawley rats.[49] For the UOO model, rats were sacrificed after 5, 8, and 11 days and the percentage of PicroSirius Red positive areas (indicator of collagen III–I deposition) were measured in 4 μm histological cross sections of the kidney after 2% paraformaldehyde perfusion fixation and paraffin embedding. The extend of kidney fibrosis was quantified based on PicroSirius Red staining of 10 renal sections about 1 mm apart from each kidney. The collagen–III-I-positive pixel counts were determined in the cortical aspect of each kidney section from 10 optical fields using a 40× objective. As the total area analyzed was identical for all kidneys under investigation, the absolute number of pixels was used as the relevant readout. Vehicle treated animals received saline gavage only. The details of PicroSirius Red staining were previously described.[22]

[2] = tested on: renal I/R-induced acute kidney injury; experiment: Ischemia/reperfusion (I/R) model of acute kidney injury; format: in vivo, C57BL/6 mice
Protocol: as §1

[3] = Microsomal clearance; format: in vitro ADME; settings: human, human microsomes; Table 1
[4] = Solubility (Table 1); format: physicochemical; settings: thermodynamic from solid
Protocol: (§2) For the determination of the octanol/water distribution coefficient (logD), the carrier-mediated distribution system (CAMDIS)-assay was used as described elsewhere.[38] Kinetic and thermodynamic solubilities were assessed using the lyophilization solubility assay (LYSA) and thermodynamic solubility assay (THESA), respectively. For the LYSA, the solubility of RNB- 61 in phosphate buffer at pH 6.5 from an evaporated 10 mM DMSO compound stock solution was measured. Two aliquots of the test compounds were dried and dissolved in phosphate buffer at pH 6.5. The solutions were then filtered and diluted (3 different dilution levels for each compound) before high throughput mass spectrometry (MS) analysis was performed in an Agilent RapidFire system. Each test compound was quantified using a 6-point calibration curve prepared with the same DMSO starting solution. For THESA, RNB-61 (8.6 mg per mL solvent/vehicle) was stirred in HPLC vials (9 × 12 × 32 mm, Waters) at 350 rpm for 15 h. The presence of solid particles was determined by microscopic analysis of 10 μL samples. If the active pharmacological ingredient (API) was completely dissolved, more solid API was added before stirring for another 15 h. This step was repeated for up to 96 h or until residual solid particles could be detected. Samples (0.5 mL) were transferred to Eppendorf Ultrafree filter tubes (Filter: PVDF 0.22 μm) and centrifuged at 14,500 rpm for 10 min. The filtrates were diluted in ethanol and analyzed by ultra-performance liquid chromatography (UPLC). Measurements were repeated in 0.05 M aqueous phosphate buffer and in fasted (FaSSIF) and fed (FeSSIF) simulated gastrointestinal fluids.

[5] = target: T1, hCB1R (Homo sapiens, UniProt P21554); experiment: cell-based; settings: Table 1; mean ± SD; read-out: EC50 hCB1R (cAMP assay)
T1 sequence (P21554 whole entry): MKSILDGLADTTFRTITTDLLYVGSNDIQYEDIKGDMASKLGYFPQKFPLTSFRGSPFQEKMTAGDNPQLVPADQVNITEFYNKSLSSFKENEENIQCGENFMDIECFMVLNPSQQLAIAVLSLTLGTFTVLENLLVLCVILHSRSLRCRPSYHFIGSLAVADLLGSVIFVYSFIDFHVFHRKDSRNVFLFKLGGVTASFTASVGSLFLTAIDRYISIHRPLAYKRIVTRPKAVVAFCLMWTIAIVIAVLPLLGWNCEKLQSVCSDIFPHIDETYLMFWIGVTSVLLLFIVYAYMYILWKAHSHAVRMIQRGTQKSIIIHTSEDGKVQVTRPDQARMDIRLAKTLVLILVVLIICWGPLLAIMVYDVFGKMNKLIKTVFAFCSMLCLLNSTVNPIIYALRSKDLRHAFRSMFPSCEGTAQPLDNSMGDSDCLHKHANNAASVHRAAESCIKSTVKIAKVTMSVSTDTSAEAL

[6] = Parallel artificial membrane permeability (PAMPA) assay; format: in vitro ADME; settings: PAMPA, Table 1; read-out: PAMPA Peff
Protocol: The general permeability of the compound was assessed using the parallel artificial membrane permeability (PAMPA) assay and the permeability-glycoprotein (P-gp) assay was used to specifically test for brain penetration. PAMPA data were generated as previously reported by our group.[44] The P-gp assay, which evaluates the brain penetration of test compounds, was performed as described elsewhere.[45] Briefly, transfected porcine kidney epithelial (LLC-PK1) cells expressing human or mouse P-gp were cultured on 96-well semipermeable filter membrane plates (Millipore, Darmstadt, Germany). Cells formed a polarized monolayer with tight junctions that acted as a barrier between apical and basolateral compartments. P-gp was expressed in the apical-facing membrane of the monolayer (tightness confirmed using Lucifer yellow). To determine the unidirectional permeability (Papp) of RNB-61, samples were added separately to the apical (for A > B Papp) and basolateral (for B > A Papp) sides of the cell monolayer (i.e., donor compartments), and RNB-61 movement into the respective receiver compartments was measured by LC-MS/MS over a 3 h incubation at 37 °C. The effect of P-gp was measured by expressing the efflux ratio of the unidirectional A > B and B > A Papp values. The mean permeability (A > B and B > A Papp) was determined in the absence of P-gp via the addition of the selective P-gp inhibitor, tariquidar.

[7] = target: human wild type CB2R (Homo sapiens, UniProt P34972); experiment: cAMP assay in CHO cells; format: cell-based; set-up: expressed in transfected cells; host or cells: CHO cells
Chain of human wild type CB2R (P34972 whole entry): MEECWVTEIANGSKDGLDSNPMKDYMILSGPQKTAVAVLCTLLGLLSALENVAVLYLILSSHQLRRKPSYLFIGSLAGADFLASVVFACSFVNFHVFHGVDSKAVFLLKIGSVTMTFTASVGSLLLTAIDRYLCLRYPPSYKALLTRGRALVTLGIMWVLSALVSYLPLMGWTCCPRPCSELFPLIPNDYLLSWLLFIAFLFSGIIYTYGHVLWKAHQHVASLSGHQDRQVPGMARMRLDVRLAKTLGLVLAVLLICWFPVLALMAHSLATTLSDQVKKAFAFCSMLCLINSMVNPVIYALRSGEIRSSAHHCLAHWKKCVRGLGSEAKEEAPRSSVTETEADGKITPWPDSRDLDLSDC

[8] = target: human CB2R (Homo sapiens, UniProt P34972); experiment: Competition binding assay with [3H]-CP55940, HEK cell membranes; settings: for hCB2R selectivity: Ki hCB1R over Ki hCB2R
Chain of human CB2R (P34972 whole entry): as above
Protocol: (§3) Competition and saturation binding assays were performed using the radiolabeled CB1R/CB2R agonist [^3H]-CP55940 (PerkinElmer).
(§4) Binding reactions were terminated by vacuum filtration onto 0.5% polyethylenimine presoaked GF/B filter plates (Packard) using a Filtermate cell harvester followed by 6 brief washes with 0.3 mL/well of ice-cold wash buffer. Wash buffer comprising 50 mmol L^–1 Tris- HCl, 5 mmol L^–1 MgCl2, 2.5 mmol L^–1 EDTA, and 0.5% fatty acid-free BSA, pH 7.4. Plates were dried at 50 °C for 1 h and liquid scintillation counting was used to determine levels of bound radiolabel. IC50 values and Hill slopes were determined with a 4-parameter logistic model using ActivityBase (ID Business Solution, Guilford, UK) and pKi values were determined using the Cheng–Prusoff equation as shown below: [drawing 1] where S indicates the concentration of the substrate and Km depicts the affinity constant of the substrate.

[9] = Octanol/water distribution coefficient (logD), CAMDIS assay; format: physicochemical; settings: octanol/water; read-out: logD
Protocol: as §2

[10] = Microsomal clearance; format: in vitro ADME; settings: rat, rat microsomes, Table 1
[11] = target: T2, CB2R in wild-type rat spleen membranes (Rattus norvegicus, UniProt Q9QZN9); format: binding; settings: WT rat spleen membranes
T2 construct: from tissue; host or cells: rat spleen membranes
T2 sequence (Q9QZN9 whole entry): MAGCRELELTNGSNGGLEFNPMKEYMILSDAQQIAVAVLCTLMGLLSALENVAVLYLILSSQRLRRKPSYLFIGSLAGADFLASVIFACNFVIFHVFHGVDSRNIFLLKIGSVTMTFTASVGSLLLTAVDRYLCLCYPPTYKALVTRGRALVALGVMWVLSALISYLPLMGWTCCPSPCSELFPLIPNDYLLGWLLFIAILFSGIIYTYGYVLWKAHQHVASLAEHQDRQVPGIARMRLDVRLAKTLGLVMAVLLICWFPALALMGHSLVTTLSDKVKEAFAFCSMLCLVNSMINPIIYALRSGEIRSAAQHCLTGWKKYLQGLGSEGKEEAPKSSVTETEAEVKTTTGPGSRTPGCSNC

[12] = target: T1, hCB1R; experiment: Competition binding assay with [3H]-CP55940, HEK cell membranes
Protocol: as §3, §4

[13] = Table 1, mean ± SD, read-out: EC50 hCB2R (cAMP assay)

Q: For `CCOC(=O)[C@H](CCc1ccccc1)N[C@@H](C)C(=O)N1CCC[C@H]1C(=O)O` [enalapril, reference compound], which “collagen–III-I positive area vs vehicle” value [1] is on record?
A: The value was “No significant difference”.

Q: With `CC1(C)CC(O)CC(C)(C)N1[O]` [tempol, reference compound] as the compound, how does the “reduction of BUN compared to vehicle” value ([2]; 50 mg kg^–1) read?
A: Its value is 26%.

Q: And the “reduction of plasma KIM-1 compared to vehicle” value ([2]; 50 mg kg^–1)?
A: The value was 57%.

Q: And the “reduction of plasma NGAL compared to vehicle” value ([2]; 50 mg kg^–1)?
A: Its value is 43%.

Q: What about the “reduction of plasma creatinine compared to vehicle” value ([2]; 50 mg kg^–1) of the same compound?
A: The value was 35%.

Q: What about the “reduction of plasma osteopontin compared to vehicle” value ([2]; 50 mg kg^–1) of the same compound?
A: The value was 49%.

Q: With `CC(C)(Oc1ccc(C(F)(F)F)cn1)C(=O)Cc1cc(C(C)(C)C)no1` [RNB-90] as the compound, how does the microsomal CLint [3] read?
A: The microsomal CLint was 15 µL/min/mg.

Q: What about the solubility [4] of the same compound?
A: Its solubility is under 1 µg/mL.

Q: What about the EC50 [5] of the same compound?
A: Its EC50 is 19.6 ± 1.18 nM.

Q: And the Papp [6]?
A: The Papp was 2 ×10⁻⁶ cm/s.

Q: What about the EC50 [7, 13] of the same compound?
A: Its EC50 is 0.26 ± 0.05 nM.

Q: What about the hCB2R selectivity [8] of the same compound?
A: Its hCB2R selectivity is 307.

Q: What about the logD [9] of the same compound?
A: Its logD is 4.07.

Q: And the microsomal CLint [10]?
A: Its microsomal CLint is 81 µL/min/mg.

Q: For `Oc1ccc(C2CNCCc3c2cc(O)c(O)c3Cl)cc1` (centres unmarked) [fenoldopam, reference compound], which “reduction of BUN compared to vehicle” value ([2]; 20 mg kg^–1) is on record?
A: The value was 39%.

Q: And the “reduction of plasma creatinine compared to vehicle” value ([2]; 20 mg kg^–1)?
A: Its value is 55%.

Q: Which “reduction of [3H]-RNB-61 radioactivity” value ([11]; competitor 1 μM) does the source give for `Cc1c(C(=O)NN2CCCCC2)nn(-c2ccc(Cl)cc2Cl)c1-c1ccc(Cl)cc1` [SR1] here?
A: The value was “did not result in a significant difference”.

Q: Which microsomal CLint [3] does the source give for `CC1(C)C(C(=O)c2cn(CCN3CCOCC3)c3ccccc23)C1(C)C` [RNB-92] here?
A: The microsomal CLint was 420 µL/min/mg.

Q: What about the solubility [4] of the same compound?
A: The solubility was 2 µg/mL (≈ 5.64 µM).

Q: What about the EC50 [7] of the same compound?
A: The EC50 was 0.17 ± 0.01 nM.

Q: And the logD [9]?
A: Its logD is 3.43.

Q: What about the microsomal CLint [10] of the same compound?
A: The microsomal CLint was 730 µL/min/mg.

Q: For `N#Cc1cc(NC(=O)CCc2nc(-c3ccc(F)cc3Cl)no2)cnc1CC(F)(F)F` [RNB-73], which microsomal CLint [3] is on record?
A: The microsomal CLint was under 10 µL/min/mg.

Q: And the solubility [4]?
A: The solubility was under 1 µg/mL.

Q: And the EC50 [5]?
A: Its EC50 is over 10000 nM.

Q: What about the Papp [6] of the same compound?
A: The Papp was 7.4 ×10⁻⁶ cm/s.

Q: And the Ki [12]?
A: Its Ki is over 10000 nM.

Q: And the EC50 [7, 13]?
A: The EC50 was 7.13 ± 2.19 nM.

Q: What about the hCB2R selectivity [8] of the same compound?
A: Its hCB2R selectivity is over 153.

Q: What about the logD [9] of the same compound?
A: The logD was 3.86.

Q: And the microsomal CLint [10]?
A: The microsomal CLint was under 10 µL/min/mg.

Q: With `CN(C(=O)c1cc(C(F)(F)F)ccc1OCC(C)(C)O)c1cc(C(C)(C)C)nn1CC1CCC1` [regioisomer of RNB-61] as the compound, how does the “activity (data not shown)” value ([8]; assay not specified) read?
A: Its value is “inactive”.

Q: For `Cc1c(C(=O)c2cccc3ccccc23)c2cccc3c2n1[C@H](CN1CCOCC1)CO3` [WIN55,212–2], which “reduction of [3H]-RNB-61 radioactivity” value ([11]; competitor 10 μM) is on record?
A: Its value is “significant reduction”.

Q: With `COCCOCCc1cc(NC(=O)C(C)(C)S(=O)(=O)C2CCOCC2)on1` [RNB-70] as the compound, how does the microsomal CLint [3] read?
A: Its microsomal CLint is under 10 µL/min/mg.

Q: What about the solubility [4] of the same compound?
A: Its solubility is over 510 µg/mL.

Q: And the EC50 [5]?
A: Its EC50 is over 10000 nM.

Q: And the Papp [6]?
A: The Papp was 5.9 ×10⁻⁶ cm/s.

Q: And the Ki [12]?
A: Its Ki is over 10000 nM.

Q: And the EC50 [7, 13]?
A: Its EC50 is 13 ± 2.58 nM.

Q: What about the hCB2R selectivity [8] of the same compound?
A: The hCB2R selectivity was over 559.

Q: What about the logD [9] of the same compound?
A: The logD was 0.8.
